Toxic doses and inconclusive results are not listed.
Tested on: P388 leukemia ip, CD2F1 mice, survival T/C
Experiment: NCI In Vivo Anticancer Drug Screen. Data for tumor model P388 Leukemia (intraperitoneal) in CD2F1 (CDF1) mice
Conditions: endpoint: median survival time, higher = longer survival
Summary of the method: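 Mice carrying the transplanted tumor received test compound or vehicle. Survival was recorded in each group, and the value is the treated-group measurement divided by that of the vehicle-treated control group.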

O=C1NC(c2cccc3ccccc23)Nc2ccccc21 (configuration not stated)
T/C (dose: 8.0 mg/kg/injection, schedule: Q03HX008 (ip), vehicle: Klucel (hydroxypropylcellulose) (HPC)): 118 % of control | T/C (dose: 8.0 mg/kg/injection, schedule: Q03HX008 (ip), vehicle: other): 109 % of control | T/C (dose: 8.0 mg/kg/injection, schedule: Q03HX008 (oral), vehicle: Klucel (hydroxypropylcellulose) (HPC)): 99 % of control | T/C (dose: 8.0 mg/kg/injection, schedule: Q03HX008 (oral), vehicle: other): 100 % of control | T/C (dose: 8.0 mg/kg/injection, schedule: Q03HX016 (ip), vehicle: Klucel (hydroxypropylcellulose) (HPC)): 124 % of control | T/C (dose: 8.0 mg/kg/injection, schedule: Q03HX016 (ip), vehicle: other): 101 % of control | T/C (dose: 8.0 mg/kg/injection, schedule: Q03HX016 (oral), vehicle: Klucel (hydroxypropylcellulose) (HPC)): 100 % of control | T/C (dose: 8.0 mg/kg/injection, schedule: Q03HX016 (oral), vehicle: other): 114 % of control | T/C (dose: 8.0 mg/kg/injection, schedule: Q03HX024 (ip), vehicle: other): 124 % of control | T/C (dose: 8.0 mg/kg/injection, schedule: Q03HX024 (oral), vehicle: Klucel (hydroxypropylcellulose) (HPC)): 101 % of control | T/C (dose: 8.0 mg/kg/injection, schedule: Q03HX024 (oral), vehicle: other): 108 % of control | T/C (dose: 16.0 mg/kg/injection, schedule: Q01DX009 (ip), vehicle: Klucel (hydroxypropylcellulose) (HPC)): 155 % of control | T/C (dose: 16.0 mg/kg/injection, schedule: Q01DX009 (ip), vehicle: other): 108 % of control | T/C (dose: 16.0 mg/kg/injection, schedule: Q01DX009 (oral), vehicle: Klucel (hydroxypropylcellulose) (HPC)): 100 % of control | T/C (dose: 16.0 mg/kg/injection, schedule: Q01DX009 (oral), vehicle: other): 100 % of control | T/C (dose: 16.0 mg/kg/injection, schedule: Q01DX009 (sc), vehicle: Klucel (hydroxypropylcellulose) (HPC)): 106 % of control | T/C (dose: 16.0 mg/kg/injection, schedule: Q01DX009 (sc), vehicle: other): 94 % of control | T/C (dose: 16.0 mg/kg/injection, schedule: Q03HX008 (ip), vehicle: other): 117 % of control | T/C (dose: 16.0 mg/kg/injection, schedule: Q03HX008 (oral), vehicle: Klucel (hydroxypropylcellulose) (HPC)): 95 % of control | T/C (dose: 16.0 mg/kg/injection, schedule: Q03HX008 (oral), vehicle: other): 104 % of control | T/C (dose: 16.0 mg/kg/injection, schedule: Q03HX016 (ip), vehicle: other): 123 % of control | T/C (dose: 16.0 mg/kg/injection, schedule: Q03HX016 (oral), vehicle: Klucel (hydroxypropylcellulose) (HPC)): 102 % of control | T/C (dose: 16.0 mg/kg/injection, schedule: Q03HX016 (oral), vehicle: other): 115 % of control | T/C (dose: 16.0 mg/kg/injection, schedule: Q03HX024 (ip), vehicle: Klucel (hydroxypropylcellulose) (HPC)): 174 % of control | T/C (dose: 16.0 mg/kg/injection, schedule: Q03HX024 (oral), vehicle: Klucel (hydroxypropylcellulose) (HPC)): 102 % of control | T/C (dose: 32.0 mg/kg/injection, schedule: Q01DX009 (ip), vehicle: Klucel (hydroxypropylcellulose) (HPC)): 177 % of control | T/C (dose: 32.0 mg/kg/injection, schedule: Q01DX009 (ip), vehicle: other): 102 % of control | T/C (dose: 32.0 mg/kg/injection, schedule: Q01DX009 (oral), vehicle: Klucel (hydroxypropylcellulose) (HPC)): 102 % of control | T/C (dose: 32.0 mg/kg/injection, schedule: Q01DX009 (oral), vehicle: other): 107 % of control | T/C (dose: 32.0 mg/kg/injection, schedule: Q01DX009 (sc), vehicle: Klucel (hydroxypropylcellulose) (HPC)): 114 % of control | T/C (dose: 32.0 mg/kg/injection, schedule: Q01DX009 (sc), vehicle: other): 117 % of control | T/C (dose: 32.0 mg/kg/injection, schedule: Q03HX008 (ip), vehicle: Klucel (hydroxypropylcellulose) (HPC)): 173 % of control | T/C (dose: 32.0 mg/kg/injection, schedule: Q03HX008 (oral), vehicle: Klucel (hydroxypropylcellulose) (HPC)): 99 % of control | T/C (dose: 32.0 mg/kg/injection, schedule: Q03HX008 (oral), vehicle: other): 122 % of control | T/C (dose: 32.0 mg/kg/injection, schedule: Q03HX016 (ip), vehicle: Klucel (hydroxypropylcellulose) (HPC)): 200 % of control | T/C (dose: 32.0 mg/kg/injection, schedule: Q03HX016 (oral), vehicle: Klucel (hydroxypropylcellulose) (HPC)): 110 % of control | T/C (dose: 32.0 mg/kg/injection, schedule: Q03HX024 (oral), vehicle: Klucel (hydroxypropylcellulose) (HPC)): 109 % of control | T/C (dose: 32.0 mg/kg/injection, schedule: Q03HX024 (oral), vehicle: other): 168 % of control | T/C (dose: 64.0 mg/kg/injection, schedule: Q01DX001 (ip), vehicle: Klucel (hydroxypropylcellulose) (HPC)): 113 % of control | T/C (dose: 64.0 mg/kg/injection, schedule: Q01DX001 (ip), vehicle: other): 99 % of control | T/C (dose: 64.0 mg/kg/injection, schedule: Q01DX001 (oral), vehicle: Klucel (hydroxypropylcellulose) (HPC)): 100 % of control | T/C (dose: 64.0 mg/kg/injection, schedule: Q01DX001 (oral), vehicle: other): 94 % of control | T/C (dose: 64.0 mg/kg/injection, schedule: Q01DX009 (ip), vehicle: Klucel (hydroxypropylcellulose) (HPC)): 194 % of control | T/C (dose: 64.0 mg/kg/injection, schedule: Q01DX009 (ip), vehicle: other): 120 % of control | T/C (dose: 64.0 mg/kg/injection, schedule: Q01DX009 (oral), vehicle: Klucel (hydroxypropylcellulose) (HPC)): 108 % of control | T/C (dose: 64.0 mg/kg/injection, schedule: Q01DX009 (oral), vehicle: other): 118 % of control | T/C (dose: 64.0 mg/kg/injection, schedule: Q03HX008 (oral), vehicle: Klucel (hydroxypropylcellulose) (HPC)): 108 % of control | T/C (dose: 64.0 mg/kg/injection, schedule: Q03HX016 (oral), vehicle: Klucel (hydroxypropylcellulose) (HPC)): 116 % of control | T/C (dose: 64.0 mg/kg/injection, schedule: Q03HX024 (oral), vehicle: Klucel (hydroxypropylcellulose) (HPC)): 119 % of control | T/C (dose: 64.0 mg/kg/injection, schedule: Q04DX003 (ip), vehicle: Klucel (hydroxypropylcellulose) (HPC)): 118 % of control | T/C (dose: 64.0 mg/kg/injection, schedule: Q04DX003 (ip), vehicle: other): 91 % of control | T/C (dose: 64.0 mg/kg/injection, schedule: Q04DX003 (oral), vehicle: Klucel (hydroxypropylcellulose) (HPC)): 100 % of control | T/C (dose: 64.0 mg/kg/injection, schedule: Q04DX003 (oral), vehicle: other): 117 % of control | T/C (dose: 64.0 mg/kg/injection, schedule: Q04DX003 (sc), vehicle: Klucel (hydroxypropylcellulose) (HPC)): 113 % of control | T/C (dose: 64.0 mg/kg/injection, schedule: Q04DX003 (sc), vehicle: other): 107 % of control | T/C (dose: 64.0 mg/kg/injection, schedule: Q08DX002 (ip), vehicle: Klucel (hydroxypropylcellulose) (HPC)): 118 % of control | T/C (dose: 64.0 mg/kg/injection, schedule: Q08DX002 (ip), vehicle: other): 100 % of control | T/C (dose: 64.0 mg/kg/injection, schedule: Q08DX002 (oral), vehicle: Klucel (hydroxypropylcellulose) (HPC)): 102 % of control | T/C (dose: 64.0 mg/kg/injection, schedule: Q08DX002 (oral), vehicle: other): 104 % of control | T/C (dose: 128.0 mg/kg/injection, schedule: Q01DX001 (ip), vehicle: Klucel (hydroxypropylcellulose) (HPC)): 121 % of control | T/C (dose: 128.0 mg/kg/injection, schedule: Q01DX001 (ip), vehicle: other): 104 % of control | T/C (dose: 128.0 mg/kg/injection, schedule: Q01DX001 (oral), vehicle: Klucel (hydroxypropylcellulose) (HPC)): 99 % of control | T/C (dose: 128.0 mg/kg/injection, schedule: Q01DX001 (oral), vehicle: other): 108 % of control | T/C (dose: 128.0 mg/kg/injection, schedule: Q01DX009 (oral), vehicle: Klucel (hydroxypropylcellulose) (HPC)): 109 % of control | T/C (dose: 128.0 mg/kg/injection, schedule: Q03HX008 (oral), vehicle: Klucel (hydroxypropylcellulose) (HPC)): 110 % of control | T/C (dose: 128.0 mg/kg/injection, schedule: Q03HX016 (oral), vehicle: Klucel (hydroxypropylcellulose) (HPC)): 122 % of control | T/C (dose: 128.0 mg/kg/injection, schedule: Q04DX003 (ip), vehicle: other): 109 % of control | T/C (dose: 128.0 mg/kg/injection, schedule: Q04DX003 (oral), vehicle: Klucel (hydroxypropylcellulose) (HPC)): 105 % of control | T/C (dose: 128.0 mg/kg/injection, schedule: Q04DX003 (oral), vehicle: other): 122 % of control | T/C (dose: 128.0 mg/kg/injection, schedule: Q04DX003 (sc), vehicle: Klucel (hydroxypropylcellulose) (HPC)): 115 % of control | T/C (dose: 128.0 mg/kg/injection, schedule: Q04DX003 (sc), vehicle: other): 114 % of control | T/C (dose: 128.0 mg/kg/injection, schedule: Q08DX002 (ip), vehicle: other): 94 % of control | T/C (dose: 128.0 mg/kg/injection, schedule: Q08DX002 (oral), vehicle: Klucel (hydroxypropylcellulose) (HPC)): 106 % of control | T/C (dose: 256.0 mg/kg/injection, schedule: Q01DX001 (ip), vehicle: other): 105 % of control | T/C (dose: 256.0 mg/kg/injection, schedule: Q01DX001 (oral), vehicle: Klucel (hydroxypropylcellulose) (HPC)): 101 % of control | T/C (dose: 256.0 mg/kg/injection, schedule: Q01DX009 (oral), vehicle: Klucel (hydroxypropylcellulose) (HPC)): 116 % of control | T/C (dose: 256.0 mg/kg/injection, schedule: Q01DX009 (sc), vehicle: Klucel (hydroxypropylcellulose) (HPC)): 91 % of control | T/C (dose: 256.0 mg/kg/injection, schedule: Q04DX003 (ip), vehicle: Klucel (hydroxypropylcellulose) (HPC)): 168 % of control | T/C (dose: 256.0 mg/kg/injection, schedule: Q04DX003 (ip), vehicle: other): 109 % of control | T/C (dose: 256.0 mg/kg/injection, schedule: Q04DX003 (oral), vehicle: Klucel (hydroxypropylcellulose) (HPC)): 107 % of control | T/C (dose: 256.0 mg/kg/injection, schedule: Q04DX003 (oral), vehicle: other): 95 % of control | T/C (dose: 256.0 mg/kg/injection, schedule: Q04DX003 (sc), vehicle: Klucel (hydroxypropylcellulose) (HPC)): 122 % of control | T/C (dose: 256.0 mg/kg/injection, schedule: Q08DX002 (ip), vehicle: other): 108 % of control | T/C (dose: 256.0 mg/kg/injection, schedule: Q08DX002 (oral), vehicle: Klucel (hydroxypropylcellulose) (HPC)): 106 % of control | T/C (dose: 512.0 mg/kg/injection, schedule: Q01DX001 (oral), vehicle: Klucel (hydroxypropylcellulose) (HPC)): 102 % of control | T/C (dose: 512.0 mg/kg/injection, schedule: Q04DX003 (oral), vehicle: Klucel (hydroxypropylcellulose) (HPC)): 116 % of control | T/C (dose: 512.0 mg/kg/injection, schedule: Q08DX002 (ip), vehicle: Klucel (hydroxypropylcellulose) (HPC)): 185 % of control | T/C (dose: 512.0 mg/kg/injection, schedule: Q08DX002 (oral), vehicle: Klucel (hydroxypropylcellulose) (HPC)): 108 % of control | T/C (dose: 1024.0 mg/kg/injection, schedule: Q01DX001 (oral), vehicle: Klucel (hydroxypropylcellulose) (HPC)): 101 % of control | T/C (dose: 1024.0 mg/kg/injection, schedule: Q04DX003 (oral), vehicle: Klucel (hydroxypropylcellulose) (HPC)): 106 % of control | T/C (dose: 1024.0 mg/kg/injection, schedule: Q04DX003 (sc), vehicle: Klucel (hydroxypropylcellulose) (HPC)): 123 % of control | T/C (dose: 1024.0 mg/kg/injection, schedule: Q08DX002 (oral), vehicle: Klucel (hydroxypropylcellulose) (HPC)): 115 % of control

From PubChem BioAssay AID330 (DTP/NCI, 2004)
